Assay results as given in ChEMBL document CHEMBL5096164, “In Vivo Profiling of a Natural Alkaloid, Anatabine, in Rodents: Pharmacokinetics and Anti-Inflammatory Efficacy” (J Nat Prod, 2021).
Active and inactive are the calls of the source. The calls are words filed in the database; no cut-off is given here.

Columns and labels:
[1] = Clearance in Wistar rat plasma at 1 mg/kg, iv administered as bolus dose measured after 5 to 360 mins by LC-MS/MS analysis; type: ADME, organism-based; settings: in vivo, time 5-360 min
[2] = Half life in Wistar rat plasma at 1 mg/kg, iv administered as bolus dose measured after 5 to 360 mins by LC-MS/MS analysis; type: ADME, organism-based; settings: time 5-360 min
[3] = Half life in Wistar rat plasma at 2 mg/kg, iv administered as bolus dose measured after 5 to 360 mins by LC-MS/MS analysis; type: ADME, organism-based; settings: time 5-360 min
[4] = Cmax in Wistar rat plasma at 2 mg/kg, iv administered as bolus dose measured after 5 to 360 mins by LC-MS/MS analysis; type: ADME, organism-based; design: dose 2 mg/kg, time upper 360 min, time lower 5 min, route iv
[5] = Cmax in Wistar rat plasma at 5 mg/kg, ip administered as bolus dose measured after 5 to 360 mins by LC-MS/MS analysis; type: ADME, organism-based; design: dose 5 mg/kg, time upper 360 min, time lower 5 min, route ip
[6] = AUC in Wistar rat plasma at 1 mg/kg, iv administered as bolus dose measured after 5 to 360 mins by LC-MS/MS analysis; type: ADME, organism-based; design: time upper 360 min, time lower 5 min, dose 1 mg/kg, route iv
[7] = Bioavailability in Wistar rat plasma at 1 mg/kg, iv administered as bolus dose measured after 5 to 360 mins by LC-MS/MS analysis; type: ADME, organism-based; settings: in vivo, time 5-360 min
[8] = Bioavailability in Wistar rat plasma at 5 mg/kg, ip administered as bolus dose measured after 5 to 360 mins by LC-MS/MS analysis; type: ADME, organism-based; settings: time 5-360 min
[9] = Cmax in C57BL/6 plasma at 2 mg/kg, ip measured after 3 to 240 mins by LC-MS/MS analysis; type: ADME, organism-based; design: time 3-240 min, dose 2 mg/kg, route ip; settings: C57BL/6, mouse
[10] = Tmax in C57BL/6 brain at 2 mg/kg, ip measured after 3 to 240 mins by LC-MS/MS analysis; type: ADME, organism-based; settings: C57BL/6, mouse, time 3-240 min
[11] = AUC in C57BL/6 plasma at 2 mg/kg, ip measured after 3 to 240 mins by LC-MS/MS analysis; type: ADME, organism-based; design: time 3-240 min, dose 2 mg/kg, route ip; settings: C57BL/6, mouse
[12] = Ratio of Cmax in C57BL/6 mouse brain to plasma at 2 mg/kg, ip measured after 3 to 240 mins by LC-MS/MS analysis; type: ADME, organism-based; settings: brain and plasma, time 3-240 min, read-out: BPR
Mus musculus [13] = test: Antiinflammatory activity in ip /LPS induced mouse model assessed as reduction in tumor necrosis factor alpha level in plasma preincubated for 1 hr followed by LPS stimulation and measured after 2 hrs by ELISA method; type: functional, organism-based; settings: dose 1-5 mg/kg, DDE = dose-dependent effect
Mus musculus [14] = test: Antiinflammatory activity in LPS induced mouse model assessed as reduction in tumor necrosis factor alpha level in plasma at 5 mg/kg, ip preincubated for 1 hr followed by LPS stimulation and measured after 2 hrs by ELISA method relative to control; type: functional; design: scale not given: the % may be the effect or the level left
Mus musculus [15] = test: Antiinflammatory activity LPS induced mouse model assessed as reduction in IL-6 level in plasma at 5 mg/kg, ip preincubated for 1 hr followed by LPS stimulation and measured after 2 hrs by ELISA method relative to control; type: functional; design: scale not given: the % may be the effect or the level left
Mus musculus [16] = test: Antiinflammatory activity LPS induced mouse model assessed as reduction in IL-1 beta at 1 to 5 mg/kg, ip preincubated for 1 hr followed by LPS stimulation and measured after 2 hrs by luminex xMAP bead based assay; type: functional, organism-based; settings: dose 1-5 mg/kg, time 3.0 hrs
Mus musculus [17] = test: Antiinflammatory activity LPS induced mouse model assessed as reduction in IL-5 at 1 to 5 mg/kg, ip preincubated for 1 hr followed by LPS stimulation and measured after 2 hrs by luminex xMAP bead based assay; type: functional, organism-based; settings: dose 1-5 mg/kg, time 3.0 hrs
Mus musculus [18] = test: Antiinflammatory activity LPS induced mouse model assessed as reduction in IL-7 at 1 to 5 mg/kg, ip preincubated for 1 hr followed by LPS stimulation and measured after 2 hrs by luminex xMAP bead based assay; type: functional, organism-based; settings: dose 1-5 mg/kg, time 3.0 hrs
Mus musculus [19] = test: Antiinflammatory activity LPS induced mouse model assessed as reduction in IL-9 at 1 to 5 mg/kg, ip preincubated for 1 hr followed by LPS stimulation and measured after 2 hrs by luminex xMAP bead based assay; type: functional, organism-based; settings: dose 1-5 mg/kg, time 3.0 hrs
Mus musculus [20] = test: Antiinflammatory activity LPS induced mouse model assessed as reduction in macrophage inflammatory protein-1 beta at 1 to 5 mg/kg, ip preincubated for 1 hr followed by LPS stimulation and measured after 2 hrs by luminex xMAP bead based assay; type: functional, organism-based; settings: dose 1-5 mg/kg, time 3.0 hrs
[21] = Drug uptake in MOG (35 to 55 residues)-induced experimental autoimmune encephalomyelitis mouse aerosol at 25 microg/L by LC-MS/MS analysis; type: ADME; settings: in vivo, inhaled_or_intranasal, dose 25 µg/L
Mus musculus [22] = species: Mus musculus; test: Antiinflammatory activity in MOG (35 to 55 residues)-induced experimental autoimmune encephalomyelitis mouse aerosol assessed as attenuation of body weight loss at 50 microg/L; type: functional, organism-based; settings: dose 50.0 µg/L
[23] = Antiinflammatory activity in MOG (35 to 55 residues)-induced experimental autoimmune encephalomyelitis mouse aerosol assessed as reduction in clinical score at 25 microg/L measured on 15 day (reference value: 1.9); type: ADME; settings: inhaled_or_intranasal, 360 h, dose 25 µg/L
[24] = Half life in rat at 0.06 mg/kg via inhalation; type: ADME, organism-based; settings: in vivo, inhaled or intranasal, route inh
[25] = Half life in rat at 0.40 mg/kg via inhalation; type: ADME, organism-based; settings: in vivo, inhaled or intranasal, route inh, dose 0.4 mg/kg
[26] = Cmax in rat at 0.40 mg/kg via inhalation; type: ADME, organism-based; design: dose 0.4 mg/kg, route inh; settings: in vivo, inhaled or intranasal, 0.4 mg/kg
[27] = AUC in rat at 0.06 mg/kg via inhalation; type: ADME, organism-based; design: dose 0.06 mg/kg, route inh; settings: in vivo, inhaled or intranasal
[28] = Bioavailability in rat at 0.06 mg/kg via inhalation; type: ADME, organism-based; settings: in vivo, inhaled or intranasal, route inh
[29] = Bioavailability in rat at 0.40 mg/kg via inhalation; type: ADME, organism-based; settings: in vivo, inhaled or intranasal, route inh, dose 0.4 mg/kg
[30] = Drug concentration in carrageenan-induced paw edema in rat respiratory tract at 77.9 microg/L via inhalation measured for 30 mins; type: ADME; settings: inhaled or intranasal, route inh, dose 77.9 µg/L, read-out: Drug uptake
[31] = Drug concentration in carrageenan-induced paw edema in rat respiratory tract at 230.7 microg/L via inhalation measured for 30 mins; type: ADME; settings: inhaled or intranasal, route inh, dose 230.7 µg/L, read-out: Drug uptake
[32] = Drug concentration in carrageenan-induced paw edema in rat respiratory tract at 254.3 microg/L via inhalation measured for 60 mins; type: ADME; settings: inhaled or intranasal, route inh, dose 254.3 µg/L, read-out: Drug uptake
Rattus norvegicus [33] = test: Antiinflammatory activity in carrageenan-induced paw edema rat model assessed as inhibition of paw swelling at 5.34 mg/kg via inhalation measured at 2 hrs relative to control; type: functional; design: scale not given: the % may be the effect or the level left; settings: route inh
Rattus norvegicus [34] = test: Antiinflammatory activity in carrageenan-induced paw edema rat model assessed as inhibition of paw swelling at 5 mg/kg, ip measured at 2 hrs relative to control; type: functional; design: scale not given: the % may be the effect or the level left
Rattus norvegicus [35] = test: Antiinflammatory activity in carrageenan-induced paw edema rat model assessed as recovery of adverse effect at hypothermia at 5 mg/kg, ip or 20 mg/kg administered daily via whole body inhalation; type: functional, organism-based
Rattus norvegicus [36] = test: Antiinflammatory activity in carrageenan-induced paw edema rat model assessed as recovery of adverse effect at tremor at 5 mg/kg, ip or 20 mg/kg administered daily via whole body inhalation; type: functional, organism-based

C1=CCC(c2cccnc2)NC1 (stereo unspecified)
CL [1]: 11.7 mL/day/kg
half-life [2]: 1.14 h
half-life [3]: 1.39 h
Cmax [4]: 1180 ng/mL
Cmax [5]: 2730 ng/mL
AUC [6]: 1990 ng·h/mL
F [7]: 100%
bioavailability [8]: 68.6%
Cmax [9]: 1370 ng/mL
Tmax [10]: 7.2 min
AUC [11]: 430 ng·h/mL
Kp [12]: 2.5
Activity (Mus musculus [13]): Dde
Activity (Mus musculus [14]): 34%
Activity (Mus musculus [15]): 47.2%
Activity (Mus musculus [16]): Active
Activity (Mus musculus [17]): Active
Activity (Mus musculus [18]): Active
Activity (Mus musculus [19]): Active
Activity (Mus musculus [20]): Active
Drug uptake [21]: 24.8 ng/mL
Activity (Mus musculus [22]): Active
Activity [23]: 0.6
half-life [24]: 3.96 h
half-life [25]: 3.84 h
Cmax [26]: 160 ng/mL
AUC [27]: 91.2 ng·h/mL
bioavailability [28]: 76.5%
bioavailability [29]: 80.1%
concentration at 0.5 h [30]: 0.87 ng/mL
concentration at 0.5 h [31]: 2.42 ng/mL
concentration at 1 h [32]: 5.34 ng/mL
Activity (Rattus norvegicus [33]): 39.6%
Activity (Rattus norvegicus [34]): 46.1%
Activity (Rattus norvegicus [35]): Active
Activity (Rattus norvegicus [36]): Active
